From article PMC7023232, “Polymer Cancerostatics Containing Cell-Penetrating Peptides: Internalization Efficacy Depends on Peptide Type and Spacer Length” (Pharmaceutics, 2020)
Read-outs that look alike come from different tables or passages of the source.

Key:
Assay type in all cases: cell-based, human
HeLa cells [1] = assay: Flow cytometry of cellular uptake of fluorescently labeled polymer–peptide conjugates (median fluorescence intensity relative to control polymer REF); details: for cell penetration compared with control polymer (in words): any of the concentrations used, at 4 °C and at 37 °C; for uptake relative to control polymer at the highest concentration: highest concentration used; for internalization efficiency compared with the control polymer: HeLa cells, flow cytometry, concentration and temperature not stated at this place (abstract)
Experimental: The HeLa cell line (LGC Standards, Poland) was cultured in Dulbecco’s modified Eagle medium (DMEM) supplemented with 100 U of penicillin, 100 μg⋅mL^−1 streptomycin, and 10% fetal bovine serum in 25 cm^2 flasks. Cells were cultivated in a humidified incubator at 37 °C with 5% CO2. The chemicals were purchased from Life Technologies/Gibco, Prague, Czech Republic.
The HeLa cell line was incubated with fluorescently labeled polymer–peptide conjugates for 1 h at 4 °C and 37 °C. For measurement at 4 °C, HeLa cells were harvested with 0.05% trypsin (Thermo Fisher Scientific, Czech Republic) at 37 °C for 3 min. Subsequently, cells were washed with 0.5% bovine serum albumin in phosphate buffered saline (0.01 M) (BSA/PBS), pre-cooled for 15 min and incubated with fluorescently labeled polymer–peptide conjugates in the dark for 1 h at 4 °C. After incubation, the cells were washed once with BSA/PBS, centrifuged at 1500 rpm for 3 min and re-suspended in 1 μM Sytox Blue Dead Cell Stain (Thermo Fisher Scientific, Czech Republic) to distinguish live and dead cells. For measurement at 37 °C, HeLa cells were seeded 24 h prior to the experiment on 24-well plates at a density 1.5 × 10^5 cells per well. Polymer–peptide conjugates were then added together with fresh DMEM and incubated at 37 °C in 5% CO2 and humidified atmosphere. Subsequently, cells were washed with BSA/PBS, harvested with 0.05% trypsin at 37 °C for 3 min, transferred to tubes, centrifuged at 1500 rpm for 3 min, and re-suspended in PBS/BSA containing 1 μM Sytox Blue Dead Cell Stain (Thermo Fisher Scientific, Czech Republic). All measurements were acquired using a FACSVerse™ flow cytometer (Becton Dickinson Czechia, s.r.o., Prague, Czech Republic) and analyzed by FlowJo software version 10 (Tree Star Inc., Ashland, OR, USA); the median of fluorescence intensity was determined. The concentration of polymer conjugates was adjusted to the value corresponding to a final concentration of peptide 1000 μM. This stock solution was diluted with PBS to obtain all used concentrations. […] HeLa cells without a polymer were used as a negative control. All samples were measured in duplicates in two independent experiments.
The uptake of the polymer–peptide conjugates incubated with the cells was measured using flow cytometry.

HeLa cells [2] = assay: Alamar Blue cell viability (cytotoxicity)
Experimental: Cytotoxicity of polymer–peptide conjugates was determined using Alamar Blue® cell viability reagent (Thermo Fischer Scientific, Czech Republic) in HeLa cells according to the manufacturer’s protocol. Cells were seeded into 96-well plates in 100 μL of DMEM 24 h prior to experiment at a density of 5 × 10^3 cells per well. […] […] Then the medium was replaced by 90 μL of fresh medium with 10 μL of Alamar Blue® reagent and incubated for the next 4 h in 5% CO2 at 37 °C. […] The fluorescence intensity was measured using a Synergy Neo plate reader (Bio-Tek, Prague, Czech Republic) with excitation at 550 nm and emission at 590 nm. Non-treated cells were used as a negative control and free pirarubicin as a positive control. All samples were measured in triplicate in three independent experiments. The half maximal inhibitory concentration value IC50 was expressed as a concentration of CPP ± SD and pirarubicin ± SD, respectively. […] In the case of drug bearing polymer conjugates, the concentration varied from 43.2 nM to 44.3 μM of pirarubicin.
Results were plotted as average ± standard deviation (SD). All statistical analysis was performed using GraphPad Prism 5.03. An ANOVA test was followed by Dunnett’s or Turkey’s test. A value of *** p < 0.001, ** p < 0.01, and * p < 0.05 was considered statistically significant. All IC50 (the concentrations of the CPP or drug reducing the cell viability to one half) values were obtained from calculations corresponding to fitting by logistic S-curves.

HeLa cells [3] = assay: Laser scanning confocal microscopy of intracellular uptake and localization
Experimental: Laser scanning confocal microscopy (LSCM) was used to visualize the intracellular uptake of selected polymer conjugates. HeLa cells were seeded 24 h prior to an experiment (1.5 × 10^5 cells per well) to confocal chambers (1 μ-dishes providing a 35 mm^2 growth area with 500 μL cell culture medium) with four chambers in a 20 mm micro-well and a #1 cover glass (0.13–0.16 mm) (Bio-Port Europe, Prague, Czech Republic). Medium was replaced by fresh medium with dissolved polymer–peptide conjugates and added to confocal chamber and incubated either at 4 °C or at 37 °C for 1 h. After the incubation time, cells were washed twice with PBS and measured by confocal microscopy. Hoechst 33342 was used for visualization of cell nuclei (5 μg·mL^−1, Thermo Fischer Scientific, Czech Republic) and cell membranes were stained with CellMask™ Green (1 μg⋅mL^−1, Thermo Fisher Scientific, Czech Republic) for 1 h before imaging at 4 °C or 10 min at 37 °C. Observation of samples was performed by Olympus IX83 coupled with FV10-ASW software (Olympus, Prague, Czech Republic). The samples were scanned using the 60× oil objective Plan ApoN (1.42 numerical apertures). Dy633-labeled polymers were excited at 637 nm and emitted light was detected through a 650–750 nm filter. For the detection of Hoechst 33342 dye-stained nuclei, an excitation wavelength of 405 nm was used and emitted light was detected through a 420–500 nm filter. CellMask Green-stained cell membranes were excited at 488 nm and the emitted light was detected through a 500–600 nm filter. All samples were measured in duplicate in two independent experiments.
A confocal microscopy study was performed to support and extend the data obtained by flow cytometry. Confocal microscopy imaging was used to map localization of CPP conjugates. The polymer conjugates with the highest cell penetration activity, TAT12 and PEN12, were selected for the confocal microscopy experiments. Conjugate REF was used as a control. The polymers were incubated with HeLa cells for 1, 2, or 4 h at 4 or 37 °C.

[4] = 24 h incubation, Alamar Blue, Dy633-labeled conjugates, mean ± SD, triplicate in three independent experiments, for REF virtual CPP concentration of the same weight concentration, read-out: IC50 (concentration of the CPP reducing the cell viability to one half)
[5] = 4 °C (cells precooled 15 min), 50 μM of CPP, up to 4 h
[6] = 37 °C, 50 μM of CPP, 1, 2 or 4 h

## RYIRS [RY4]
HeLa cells [1]; HeLa, 1 h
  cell penetration compared with control polymer (in words): do not penetrate cells better than the control polymer

## PFVYLI [PF4]
HeLa cells [1]; HeLa, 4 °C (precooled cells), 1 h, median fluorescence intensity ratio to REF
  increase in uptake relative to REF: up to 2 times
HeLa cells [1]; HeLa, 4 °C, 1 h
  uptake relative to control polymer at the highest concentration: 1.8 times
HeLa cells [1]; HeLa, 37 °C, 1 h
  uptake relative to control polymer at the highest concentration: 1.8 times

## RRMKWKK [PEN4]
HeLa cells [1]
  internalization efficiency compared with the control polymer: ~15 times
HeLa cells [1]; HeLa, 4 °C, 1 h
  effect of tetra(ethylene glycol) spacer on penetration compared with spacer-free PEN0 (in words): not long enough to improve the penetration
HeLa cells [1]; HeLa, 4 °C, 1 h, 1 and 10 μM of CPP
  uptake compared with TAT4 (in words): slightly outperformed TAT4
HeLa cells [1]; HeLa, 4 °C, 1 h, 25 and 50 μM of CPP
  concentration dependence of relative uptake (in words): did not exhibit any more improvement
HeLa cells [1]; HeLa, 37 °C, 1 h, all measured concentrations
  relative increase of fluorescence intensity compared to REF, versus TAT4 (in words): lower than in the case of TAT4
HeLa cells [2]; [4]
  IC50: 82.9 ± 4.8 µM

## COc1cccc2c1C(=O)c1c(O)c3c(c(O)c1C2=O)C[C@@](O)(C(=O)CO)C[C@@H]3O[C@H]1C[C@H](N)[C@H](O[C@@H]2CCCCO2)[C@H](C)O1 [Pir, Pirarubicin, reference compound]
HeLa cells [2]; Homo sapiens, 24 h incubation, Alamar Blue, expressed as pirarubicin, mean ± SD, triplicate in three independent experiments, read-out: IC50 (concentration of the Pir reducing the cell viability to one half)
  IC50: 1.03 ± 0.3 µg/mL

## GRKKRRQRRR [P-T12-Pir, HPMA copolymer bearing pirarubicin via GFLG and TAT via dodeca(ethylene glycol) spacer]
HeLa cells [2]; 24 h incubation
  IC50 lower compared with P-Pir conjugate without any CPP: more than two
HeLa cells [2]; 24 h incubation, Alamar Blue, expressed as pirarubicin, mean ± SD, triplicate in three independent experiments
  IC50 (concentration of the Pir reducing the cell viability to one half): 18.3 ± 6.2 µg/mL
HeLa cells [2]; 24 h incubation, read-out: concentration of CPP present on the conjugate at IC50 value
  IC50: ~20.7 µM
HeLa cells [2]; 72 h incubation, Alamar Blue
  cytotoxicity (IC50 as pirarubicin) after longer incubation time: 11.1 ± 1.6 µg/mL

## YARAAARQARA [YA4]
HeLa cells [1]; HeLa, 1 h
  cell penetration compared with control polymer (in words): do not penetrate cells better than the control polymer

## GRKKRRQRRR [TAT4]
HeLa cells [1]
  internalization efficiency compared with the control polymer: about 40 times
HeLa cells [1]; HeLa, 4 °C, 1 h, 1 μM of CPP
  cell penetration level compared with REF: seven
HeLa cells [1]; HeLa, 37 °C, 1 h, 0.1 μM of CPP
  enhanced cellular uptake (relative fluorescence intensity) compared to REF: 14 times
HeLa cells [2]; [4]
  IC50: 95.3 ± 2.6 µM

## RRMKWKK [PEN12]
HeLa cells [1]; HeLa, 4 °C, 1 h, 25 μM of CPP
  penetration efficacy relative to shorter analog PEN4: two
HeLa cells [3]; [5]
  cellular localization / internalization by confocal microscopy (in words): much less pronounced at 4 °C
HeLa cells [3]; [6]
  cellular localization / internalization by confocal microscopy (in words): lower cell internalization compared with TAT12

## GRKKRRQRRR [TAT12]
HeLa cells [1]; HeLa, 4 °C, 1 h, 50 μM of CPP
  penetration efficacy relative to spacer-free conjugate TAT0: 2.8 times
HeLa cells [3]; [5]
  cellular localization / internalization by confocal microscopy (in words): partially localized even in the cytosol
HeLa cells [3]; [6]
  cellular localization / internalization by confocal microscopy (in words): localized in cytosol already after 1 h
  presence of the polymer in the cell nuclei (in words): negligible

## VPMLK [VP4]
HeLa cells [1]; HeLa, 1 h
  cell penetration compared with control polymer (in words): do not penetrate cells better than the control polymer
